Here are results for ten compounds from patent US20250064945A1 (Arvinas Operations, Inc., priority 2021, published 2025).

Structures can show the parent of a compound that is named as a salt. A value given as a limit tells only on which side of the number the result lay.

For orientation: DC50 means the midpoint of the concentration-degradation curve. Low readings indicate a more potent degrader, high ones a less potent degrader. A word on the Dmax: it is the largest share of the target that was removed.

The target of this experiment is T1, BRM (Homo sapiens, UniProt P51531).
T1 construct: In-Cell Western Screen of BRM Degradation in SW1573 Cells; endogenous in cells; host or cells: SW1573 cells
Kind of experiment: Western blot / In-Cell Western screen of BRM degradation in SW1573 cells. Type of experiment: cell-based. To be noted: overnight (18-20 hours) treatment; for Dmax: read-out: Dmax (%) (% degraded). The method, then:
Western Blot Screen of BRM Degradation in SW1573 Cells
To assess BRM degradation (Dmax and DC50) cells were seeded at 8000/well in 96-well black/clear-bottom plates in 180 μL DMEM growth media (containing 1% pen-strep, 1% HEPES and 10% FBS) per well. Plates were incubated overnight to allow adhesion. The next morning cells were treated by adding 20 μL of 10× target compound concentration (1% DMSO) to appropriate wells and returned to incubator for overnight (18-20 hours). The final DMSO concentration was 0.1%.
For lysing, adherent cells were washed once with 100 μL of DPBS. Cells were lysed in 40 μL of 1× RIPA+HALT protease inhibitor on ice for 10 minutes and frozen until use at −80° C. Thawed lysates were cleaned by filtration in 1.2 µm filter plates, or alternatively, were spun clean at 2300 g at 4° C. for 30 minutes.
For blotting, for each Western sample 30 μL of lysate was added to 10 μL of 4×LDS sample buffer, then denatured at 95° C. for 5 minutes in the thermal cycler and placed on ice. Samples were loaded on 4-15% Tris/Glycine gels and run for 25 minutes at 250 constant volts in 1×Tris/Glycine buffer with 4 μL of ladder and 12 μL of each sample loaded for each blot. Protein was transferred from gels to NC with BioRad Turbo dry-transfer unit with the Turbo/midi default program. All blots were rinsed with ddH2O and blocked for 1 hour at room temperature in 5% BSA in TBST (0.1%) on rocker. Blots were exposed to primary antibody in 5% BSA in TBST (0.1%) overnight at 4° C. on rocker (1:1000 for BRM (Cell Signaling Tech. cat #11966) and 1:2000 for alpha-tubulin (Cell Signaling Tech. cat #3873), a control protein. Blot was washed with TBST (0.1%) three times for 5 minutes on rocker at room temperature. Secondary antibody was added, and blots were incubated on a room temperature rocker for 1 hour with 1:18,000 anti-rabbit-HRP and/or anti-mouse-HRP in 5% BSA in TBST (0.1%). Blots were washed three times in TBST (0.1%) for 5 minutes at room temperature on the rocker. Signal was developed with Femto Maximum Sensitivity substrate for 4 minutes and blots read on ChemiDoc™.
In-Cell Western Screen of BRM Degradation in SW1573 Cells
To assess BRM degradation (Dmax and DC50), cells were seeded at 8000/well in 96-well black/clear-bottom plates in 180 μL DMEM growth media (containing 1% pen-strep, 1% HEPES and 10% FBS) per well. Plates were incubated overnight to allow adhesion. The next morning cells were treated by adding 20 μL of 10× compound (1% DMSO) to appropriate wells and returned to incubator for overnight (18-20 hours). The final DMSO concentration was 0.1%.
For processing, the plates were removed from incubator, the media was removed, and immediately 200 μL of cold (4° C.) DPBS was added to all wells. DPBS was then removed, and 50 μL of 4% paraformaldehyde (PFA) in DPBS (4° C.) was added to all wells, and the plates were incubated at room temperature for 20 minutes. PFA was then removed, and 200 μL of TBS-T containing 0.5% Triton X-100 was added to all wells, and the plates were incubated at room temperature for 30 minutes. TBS-T containing 0.5% Triton X-100 was then removed, and 50 μL of Li-Cor blocking solution was added, and the plates were incubated at room temperature for a minimum of one hour. The blocking solution was removed, and 50 μL of Li-Cor blocking solution containing primary antibody cocktail was added (1:1000 for BRM (Cell Signaling Tech. cat #11966) and 1:2000 for alpha-tubulin (Sigma cat #T6074), a control protein. Plates were then placed in cold room until the next day.
The next day plates were washed three times with TBS-T, 200 μL per well. Fifty […] of secondary antibody cocktail in LI-COR blocking solution (anti-rabbit_800 nm and anti-mouse_680 nm) was added to all wells (diluted 1:5000). The plates were incubated at room temperature for at least one hour while protected from light. The plates were washed twice with TBS-T, 200 μL per well. […]

T1 sequence (P51531 whole entry): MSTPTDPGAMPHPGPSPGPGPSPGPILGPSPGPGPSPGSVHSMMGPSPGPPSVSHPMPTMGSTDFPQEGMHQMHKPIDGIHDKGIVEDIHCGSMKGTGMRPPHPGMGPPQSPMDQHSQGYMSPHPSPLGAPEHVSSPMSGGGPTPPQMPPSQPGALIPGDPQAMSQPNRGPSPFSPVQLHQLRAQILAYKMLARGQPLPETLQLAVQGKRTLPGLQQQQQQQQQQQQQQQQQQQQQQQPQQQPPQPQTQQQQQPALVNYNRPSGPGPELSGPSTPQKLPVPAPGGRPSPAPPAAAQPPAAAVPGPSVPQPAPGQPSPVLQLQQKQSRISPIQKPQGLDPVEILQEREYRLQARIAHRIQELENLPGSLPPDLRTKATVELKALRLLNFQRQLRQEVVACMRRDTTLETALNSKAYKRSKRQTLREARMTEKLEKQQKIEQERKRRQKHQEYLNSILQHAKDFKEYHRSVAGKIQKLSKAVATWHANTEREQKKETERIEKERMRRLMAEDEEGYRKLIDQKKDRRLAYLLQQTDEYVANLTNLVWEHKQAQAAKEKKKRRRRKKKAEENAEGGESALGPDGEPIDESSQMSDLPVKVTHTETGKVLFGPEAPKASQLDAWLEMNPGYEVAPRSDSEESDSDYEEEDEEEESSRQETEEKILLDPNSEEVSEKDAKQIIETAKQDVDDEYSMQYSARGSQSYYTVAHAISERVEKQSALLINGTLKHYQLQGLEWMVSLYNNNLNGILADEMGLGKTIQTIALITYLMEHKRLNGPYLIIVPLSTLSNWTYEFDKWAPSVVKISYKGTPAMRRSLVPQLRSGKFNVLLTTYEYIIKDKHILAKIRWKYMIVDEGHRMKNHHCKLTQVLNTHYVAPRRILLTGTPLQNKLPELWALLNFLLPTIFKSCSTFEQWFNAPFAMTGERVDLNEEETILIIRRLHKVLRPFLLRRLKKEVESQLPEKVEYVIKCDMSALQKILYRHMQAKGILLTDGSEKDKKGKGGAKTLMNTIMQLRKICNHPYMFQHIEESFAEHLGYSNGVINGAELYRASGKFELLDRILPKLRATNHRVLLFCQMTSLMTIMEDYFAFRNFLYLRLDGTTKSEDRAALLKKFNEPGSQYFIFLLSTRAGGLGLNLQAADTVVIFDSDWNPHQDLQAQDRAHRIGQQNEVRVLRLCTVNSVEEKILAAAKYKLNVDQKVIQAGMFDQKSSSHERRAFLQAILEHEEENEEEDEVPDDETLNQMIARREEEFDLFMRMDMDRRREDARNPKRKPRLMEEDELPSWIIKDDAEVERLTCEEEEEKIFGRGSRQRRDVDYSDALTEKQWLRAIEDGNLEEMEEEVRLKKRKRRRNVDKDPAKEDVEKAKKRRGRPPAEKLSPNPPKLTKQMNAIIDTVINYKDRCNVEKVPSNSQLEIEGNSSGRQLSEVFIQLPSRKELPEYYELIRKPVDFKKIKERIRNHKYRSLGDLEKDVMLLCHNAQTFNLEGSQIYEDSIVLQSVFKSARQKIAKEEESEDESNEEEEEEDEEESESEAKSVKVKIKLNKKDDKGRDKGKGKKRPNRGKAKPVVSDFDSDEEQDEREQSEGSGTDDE

Consider `Cc1ncsc1-c1ccc([C@H](C)NC(=O)[C@@H]2C[C@@H](O)CN2C(=O)[C@@H](c2cc(N3CCC(CN4CCC5(CC4)CC(N4CCO[C@@H](CN6CC7(CCN(c8cc(-c9ccccc9O)nnc8N)CC7)C6)C4)C5)CC3)no2)C(C)C)cc1` [Compound 18, (2S,4R)-1-[(2R)-2-{3-[4-({2-[(2S)-2-({7-[3-amino-6-(2-hydroxyphenyl)pyridazin-4-yl]-2,7-diazaspiro[3.5]nonan-2-yl}methyl)morpholin-4-yl]-7-azaspiro[3.5]nonan-7-yl}methyl)piperidin-1-yl]-1,2-oxazol-5-yl}-3-methylbutanoyl]-4-hydroxy-N-[(1S)-1-[4-(4-methyl-1,3-thiazol-5-yl)phenyl]ethyl]pyrrolidine-2-carboxamide], for which the DC50 was 10 to 30 nM and the maximal degradation (Dmax) was greater than 75%.

Compound `Cc1ncsc1-c1ccc([C@H](C)NC(=O)[C@@H]2C[C@@H](O)CN2C(=O)[C@@H](c2cc(OCCCC#Cc3cn4cc(-c5ccccc5O)nc4nc3N)no2)C(C)C)cc1` [Compound 31, (2S,4R)-1-[(2R)-2-[3-[5-[7-amino-2-(2-hydroxyphenyl)imidazo[1,2-a]pyrimidin-6-yl]pent-4-ynoxy]isoxazole-5-yl]-3-methyl-butanoyl]-4-hydroxy-N-[(1S)-1-[4-(4-methylthiazol-5-yl)phenyl]ethyl]pyrrolidine-2-carboxamide] had a DC50 of no less than 30 nM.

For `Cc1ncsc1-c1ccc([C@H](C)NC(=O)[C@@H]2C[C@@H](O)CN2C(=O)[C@@H](c2cc(N3CCC(O[C@H]4C[C@H](OCC#Cc5cn6cc(-c7ccccc7O)nc6nc5N)C4)CC3)no2)C(C)C)cc1` [Compound 35, formate], the half-maximal degradation concentration (DC50) was in the range of 2.5 to 10 nM and the Dmax was greater than 75%.

For the compound `CC(C)[C@@H](C(=O)N1C[C@H](O)C[C@H]1C(=O)N[C@@H](C)c1ccc(C#N)cc1)c1cc(OCCN2CCN(CCOc3cc(N4CCN(c5cc(-c6ccccc6O)nnc5N)CC45COC5)ccn3)CC2)no1` [Compound 19, (2S,4R)-1-[(2R)-2-{3-[2-(4-{2-[(4-{8-[3-amino-6-(2-hydroxyphenyl)pyridazin-4-yl]-2-oxa-5,8-diazaspiro[3.5]nonan-5-yl}pyridin-2-yl)oxy]ethyl}piperazin-1-yl)ethoxy]-1,2-oxazol-5-yl}-3-methylbutanoyl]-N-[(1S)-1-(4-cyanophenyl)ethyl]-4-hydroxypyrrolidine-2-carboxamide], the DC50 was in the range of 2.5 to 10 nM and the Dmax is greater than 75%.

With `Cc1ncsc1-c1ccc([C@H](C)NC(=O)[C@@H]2C[C@@H](O)CN2C(=O)[C@@H](c2cc(N3CCC(CN4CCC(O[C@H]5C[C@H](Oc6cc(N7CCN(c8cc(-c9ccccc9O)nnc8N)CC78CC8)ccn6)C5)CC4)CC3)no2)C(C)C)cc1` [Compound 6, (2S,4R)-4-hydroxy-N-[(1S)-1-[4-(4-methyl-1,3-thiazol-5-yl)phenyl]ethyl]-1-[(2R)-3-methyl-2-{3-[4-({4-[(1r,3r)-3-[(4-{7-[3-amino-6-(2-hydroxyphenyl)pyridazin-4-yl]-4,7-diazaspiro[2.5]octan-4-yl}pyridin-2-yl)oxy]cyclobutoxy]piperidin-1-yl}methyl)piperidin-1-yl]-1,2-oxazol-5-yl}butanoyl]pyrrolidine-2-carboxamide], the DC50 was less than 2.5 nM and the Dmax is greater than 75%.

Take `CC(C)[C@@H](C(=O)N1C[C@H](O)C[C@H]1C(=O)N[C@@H](C)c1ccc(-c2ccnn2C)cc1)c1cc(N2CCC(CN3CCC(O[C@H]4C[C@H](OCC#Cc5cn6cc(-c7ccccc7O)nc6nc5N)C4)CC3)CC2)no1` [Compound 32]: the DC50 is less than 2.5 nM and the Dmax is greater than 75%.

With `Cc1ncsc1-c1ccc([C@H](C)NC(=O)[C@@H]2C[C@@H](O)CN2C(=O)[C@@H](c2cc(N3CCC(CN4CCC5(CC4)CC(N4CCO[C@@H](CN6CCOC7(CCN(c8cc(-c9ccccc9O)nnc8N)CC7)C6)C4)C5)CC3)no2)C(C)C)cc1` [Compound 26, (2S,4R)-1-[(2R)-2-{3-[4-({2-[(2S)-2-({9-[3-amino-6-(2-hydroxyphenyl)pyridazin-4-yl]-1-oxa-4,9-diazaspiro[5.5]undecan-4-yl}methyl)morpholin-4-yl]-7-azaspiro[3.5]nonan-7-yl}methyl)piperidin-1-yl]-1,2-oxazol-5-yl}-3-methylbutanoyl]-4-hydroxy-N-[(1S)-1-[4-(4-methyl-1,3-thiazol-5-yl)phenyl]ethyl]pyrrolidine-2-carboxamide], the DC50 was less than 2.5 nM and the Dmax was greater than 75%.

Regarding `Cc1ncsc1-c1ccc([C@H](C)NC(=O)[C@@H]2C[C@@H](O)CN2C(=O)[C@@H](c2cc(N3CCC(CN4CCC(O[C@H]5C[C@H](n6cnc(CN7C8CCC7CN(c7cc(-c9ccccc9O)nnc7N)C8)c6)C5)CC4)CC3)no2)C(C)C)cc1` (relative stereo) [Compound 10, (2S,4R)-4-hydroxy-N-[(1S)-1-[4-(4-methyl-1,3-thiazol-5-yl)phenyl]ethyl]-1-[(2R*)-3-methyl-2-{3-[4-({4-[(1r,3r)-3-[4-({3-[3-amino-6-(2-hydroxyphenyl)pyridazin-4-yl]-3,8-diazabicyclo[3.2.1]octan-8-yl}methyl)-1H-imidazol-1-yl]cyclobutoxy]piperidin-1-yl}methyl)piperidin-1-yl]-1,2-oxazol-5-yl}butanoyl]pyrrolidine-2-carboxamide], the DC50 is less than 2.5 nM and the Dmax was greater than 75%.

`Cc1cnn(C)c1-c1ccc([C@H](C)NC(=O)[C@@H]2C[C@@H](O)CN2C(=O)[C@@H](c2cc(N3CCC(CN4CCC(O[C@H]5C[C@H](C#Cc6cn7cc(-c8ccccc8O)nc7nc6N)C5)CC4)CC3)no2)C(C)C)cc1` [Compound 40, (2S,4R)-N-[(1S)-1-[4-(1,4-dimethyl-1H-pyrazol-5-yl)phenyl]ethyl]-4-hydroxy-1-[(2R)-3-methyl-2-{3-[4-({4-[(1r,3r)-3-{2-[7-amino-2-(2-hydroxyphenyl)imidazo[1,2-a]pyrimidin-6-yl]ethynyl}cyclobutoxy]piperidin-1-yl}methyl)piperidin-1-yl]-1,2-oxazol-5-yl}butanoyl]pyrrolidine-2-carboxamide]: the DC50 lay within 2.5 to 10 nM and the Dmax was greater than 75%.

Turning to `Cc1ncsc1-c1ccc([C@H](C)NC(=O)[C@@H]2C[C@@H](O)CN2C(=O)[C@@H](c2cc(N3CCC(CN4CCC(O[C@H]5C[C@H](N6CCC(CC#Cc7cn8cc(-c9ccccc9O)nc8nc7N)CC6)C5)CC4)CC3)no2)C(C)C)cc1` [Compound 37, (2S,4R)-4-hydroxy-N-[(1S)-1-[4-(4-methyl-1,3-thiazol-5-yl)phenyl]ethyl]-1-[(2R)-3-methyl-2-{3-[4-({4-[(1r,3r)-3-(4-{3-[7-amino-2-(2-hydroxyphenyl)imidazo[1,2-a]pyrimidin-6-yl]prop-2-yn-1-yl}piperidin-1-yl)cyclobutoxy]piperidin-1-yl}methyl)piperidin-1-yl]-1,2-oxazol-5-yl}butanoyl]pyrrolidine-2-carboxamide], the DC50 was less than 2.5 nM and the Dmax was greater than 75%.
